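In this assay, cells in 96-well plates receive the compound at five concentrations for 48 hours. Endpoints are linearly interpolated between the surrounding concentrations. The concentration for full growth arrest is given as TGI.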
Key:
Test in all cases: inhibition of tumour cell growth, NCI panel, 48 h
XF 498 CNS = system: XF 498 CNS
SF-268 CNS = system: SF-268 CNS
NCI-H226 lung = system: NCI-H226 lung
SK-MEL-28 melanoma = system: SK-MEL-28 melanoma
SNB-19 CNS = system: SNB-19 CNS
IGROV1 ovarian = system: IGROV1 ovarian
ACHN renal = system: ACHN renal
LOX IMVI melanoma = system: LOX IMVI melanoma
OVCAR-3 ovarian = system: OVCAR-3 ovarian
M14 melanoma = system: M14 melanoma
A549 NSCLC = system: A549 NSCLC
SK-MEL-2 melanoma = system: SK-MEL-2 melanoma
KM12 colon = system: KM12 colon
M19-MEL melanoma = system: M19-MEL melanoma
K-562 leukemia = system: K-562 leukemia
SNB-75 CNS = system: SNB-75 CNS
EKVX NSCLC = system: EKVX NSCLC
RPMI-8226 leukemia = system: RPMI-8226 leukemia
SF-295 CNS = system: SF-295 CNS
UO-31 renal = system: UO-31 renal
SR leukemia = system: SR leukemia
U251 CNS = system: U251 CNS
KM20L2 colon = system: KM20L2 colon
CCRF-CEM leukemia = system: CCRF-CEM leukemia
HT29 colon = system: HT29 colon
CAKI-1 renal = system: CAKI-1 renal
UACC-257 melanoma = system: UACC-257 melanoma
SK-OV-3 ovarian = system: SK-OV-3 ovarian
HCT-116 colon = system: HCT-116 colon
HCT-15 colon = system: HCT-15 colon
DMS 273 small cell lung = system: DMS 273 small cell lung
HOP-92 NSCLC = system: HOP-92 NSCLC
LXFL 529 NSCLC = system: LXFL 529 NSCLC
HL-60(TB) leukemia = system: HL-60(TB) leukemia
TK-10 renal = system: TK-10 renal
SN12C renal = system: SN12C renal
786-0 renal = system: 786-0 renal
UACC-62 melanoma = system: UACC-62 melanoma
NCI-H23 lung = system: NCI-H23 lung
SF-539 CNS = system: SF-539 CNS
NCI-H522 lung = system: NCI-H522 lung
SNB-78 CNS = system: SNB-78 CNS
DLD-1 colon = system: DLD-1 colon
SW-620 colon = system: SW-620 colon
MOLT-4 leukemia = system: MOLT-4 leukemia
MALME-3M melanoma = system: MALME-3M melanoma
NCI-H460 lung = system: NCI-H460 lung
HOP-62 NSCLC = system: HOP-62 NSCLC
A498 renal = system: A498 renal
COLO 205 colon = system: COLO 205 colon
OVCAR-8 ovarian = system: OVCAR-8 ovarian
SK-MEL-5 melanoma = system: SK-MEL-5 melanoma
DMS 114 small cell lung = system: DMS 114 small cell lung
OVCAR-4 ovarian = system: OVCAR-4 ovarian
OVCAR-5 ovarian = system: OVCAR-5 ovarian
RXF 393 renal = system: RXF 393 renal
HCC-2998 colon = system: HCC-2998 colon
DU-145 prostate = system: DU-145 prostate
MDA-MB-231 breast = system: MDA-MB-231 breast
T-47D breast = system: T-47D breast
PC-3 prostate = system: PC-3 prostate
MCF7 breast = system: MCF7 breast
MDA-MB-435 = system: MDA-MB-435
HS 578T breast = system: HS 578T breast
BT-549 breast = system: BT-549 breast
NCI/ADR-RES ovarian = system: NCI/ADR-RES ovarian
MDA-N = system: MDA-N

Measured: TGI

COCCNC(=O)C1C(=O)N(CCOC)C(=O)/C1=N/N (stereo not given)
> 100 µM: XF 498 CNS | SF-268 CNS | NCI-H226 lung | SK-MEL-28 melanoma | SNB-19 CNS | IGROV1 ovarian | ACHN renal | LOX IMVI melanoma | OVCAR-3 ovarian | M14 melanoma | A549 NSCLC | SK-MEL-2 melanoma | KM12 colon | M19-MEL melanoma | K-562 leukemia | SNB-75 CNS | EKVX NSCLC | RPMI-8226 leukemia | SF-295 CNS | UO-31 renal | SR leukemia | U251 CNS | KM20L2 colon | CCRF-CEM leukemia | HT29 colon | CAKI-1 renal | UACC-257 melanoma | SK-OV-3 ovarian | HCT-116 colon | HCT-15 colon | DMS 273 small cell lung | HOP-92 NSCLC | LXFL 529 NSCLC | HL-60(TB) leukemia | TK-10 renal | SN12C renal | 786-0 renal | UACC-62 melanoma | NCI-H23 lung | SF-539 CNS | NCI-H522 lung | SNB-78 CNS | DLD-1 colon | SW-620 colon | MOLT-4 leukemia | MALME-3M melanoma

CC(=O)Oc1c(-c2ccccc2)[nH]c2cc([N+](=O)[O-])c(/C(Cl)=C/c3ccccc3)cc12
27.7 µM: UACC-257 melanoma
44.5 µM: A549 NSCLC
17.3 µM: HCT-116 colon
25.2 µM: SK-MEL-28 melanoma
18.6 µM: KM20L2 colon
7.72 µM: DMS 114 small cell lung
11.1 µM: HT29 colon
11.6 µM: NCI-H23 lung
27.4 µM: SR leukemia
69.2 µM: CAKI-1 renal
16.3 µM: KM12 colon
39.3 µM: OVCAR-4 ovarian
27.6 µM: UO-31 renal
19.6 µM: UACC-62 melanoma | COLO 205 colon
52.6 µM: SNB-78 CNS
83.9 µM: SK-OV-3 ovarian
10.7 µM: HL-60(TB) leukemia
18.1 µM: NCI-H226 lung | LXFL 529 NSCLC
18.5 µM: NCI-H522 lung
25.5 µM: 786-0 renal
65.8 µM: IGROV1 ovarian
19.8 µM: U251 CNS
17.7 µM: OVCAR-8 ovarian | OVCAR-5 ovarian
22.5 µM: SF-295 CNS
19.4 µM: M19-MEL melanoma | SN12C renal
64.4 µM: TK-10 renal
23.6 µM: A498 renal
94.2 µM: SNB-19 CNS
3.75 µM: SK-MEL-5 melanoma
19.3 µM: XF 498 CNS
18.3 µM: HOP-92 NSCLC
30.8 µM: SK-MEL-2 melanoma
23.1 µM: M14 melanoma
70.2 µM: NCI-H460 lung
> 100 µM: SF-268 CNS | K-562 leukemia | SNB-75 CNS | RPMI-8226 leukemia | DLD-1 colon
46.8 µM: OVCAR-3 ovarian
29.5 µM: CCRF-CEM leukemia
13.8 µM: MOLT-4 leukemia
59.3 µM: EKVX NSCLC
46.6 µM: ACHN renal
61.5 µM: HOP-62 NSCLC
29.3 µM: SW-620 colon

CN(C)CCCn1cnc2ncccc2c1=O
> 100 µM: NCI-H460 lung | XF 498 CNS | SF-268 CNS | NCI-H226 lung | SK-MEL-28 melanoma | SNB-19 CNS | IGROV1 ovarian | ACHN renal | LOX IMVI melanoma | OVCAR-3 ovarian | M14 melanoma | RXF 393 renal | A549 NSCLC | SK-MEL-2 melanoma | KM12 colon | M19-MEL melanoma | K-562 leukemia | SNB-75 CNS | EKVX NSCLC | SF-295 CNS | UO-31 renal | SR leukemia | U251 CNS | CCRF-CEM leukemia | HOP-62 NSCLC | HT29 colon | HCC-2998 colon | CAKI-1 renal | SK-OV-3 ovarian | HCT-116 colon | DMS 273 small cell lung | HOP-92 NSCLC | LXFL 529 NSCLC | TK-10 renal | SN12C renal | 786-0 renal | UACC-62 melanoma | NCI-H23 lung | COLO 205 colon | SF-539 CNS | OVCAR-8 ovarian | NCI-H522 lung | SNB-78 CNS | DLD-1 colon | SK-MEL-5 melanoma | DMS 114 small cell lung | SW-620 colon | OVCAR-4 ovarian | MOLT-4 leukemia | OVCAR-5 ovarian | MALME-3M melanoma

CN(Cc1c2ccccc2cc2ccccc12)S(=O)(=O)c1ccc(-c2c3nc(c(-c4ccc(S(=O)(=O)N(C)Cc5c6ccccc6cc6ccccc56)cc4)c4ccc([nH]4)c(-c4ccc(S(=O)(=O)N(C)Cc5c6ccccc6cc6ccccc56)cc4)c4nc(c(-c5ccc(S(=O)(=O)N(C)Cc6c7ccccc7cc7ccccc67)cc5)c5ccc2[nH]5)C=C4)C=C3)cc1
56.8 µM: SNB-75 CNS
> 100 µM: NCI-H460 lung | SF-268 CNS | SK-MEL-28 melanoma | SNB-19 CNS | IGROV1 ovarian | ACHN renal | LOX IMVI melanoma | OVCAR-3 ovarian | M14 melanoma | RXF 393 renal | A549 NSCLC | SK-MEL-2 melanoma | DU-145 prostate | KM12 colon | K-562 leukemia | EKVX NSCLC | RPMI-8226 leukemia | SF-295 CNS | UO-31 renal | SR leukemia | U251 CNS | MDA-MB-231 breast | CCRF-CEM leukemia | HT29 colon | T-47D breast | PC-3 prostate | HCC-2998 colon | CAKI-1 renal | UACC-257 melanoma | SK-OV-3 ovarian | MCF7 breast | HCT-116 colon | A498 renal | HCT-15 colon | HL-60(TB) leukemia | TK-10 renal | SN12C renal | MDA-MB-435 | 786-0 renal | UACC-62 melanoma | HS 578T breast | NCI-H23 lung | COLO 205 colon | SF-539 CNS | OVCAR-8 ovarian | NCI-H522 lung | SK-MEL-5 melanoma | BT-549 breast | SW-620 colon | OVCAR-4 ovarian | NCI/ADR-RES ovarian | MOLT-4 leukemia | MDA-N | OVCAR-5 ovarian | MALME-3M melanoma
84.6 µM: HOP-62 NSCLC
83.4 µM: HOP-92 NSCLC
